The subject of one test is HAP1 MTAP-deleted. The test is described as follows: SDMA in-cell western assay, HAP1 MTAP-deleted cell line. Conditions: for IC50: Homo sapiens, HAP1 MTAP-deleted cell line; for MTAP Intact/Deleted Ratio: IC50 ratio HAP1 MTAP-intact / HAP1 MTAP-deleted. The class given is cell-based. In short, it runs like this: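 IC50 from SDMA in-cell western; HAP1 line lacking MTAP (null), paired isogenically with MTAP-intact HAP1 expressing endogenous MTAP.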

Test [1] deals with T1, PRMT5 (Homo sapiens, UniProt O14744).
T1 construct: purchased Viva (custom protein)
T1 sequence (O14744 whole entry): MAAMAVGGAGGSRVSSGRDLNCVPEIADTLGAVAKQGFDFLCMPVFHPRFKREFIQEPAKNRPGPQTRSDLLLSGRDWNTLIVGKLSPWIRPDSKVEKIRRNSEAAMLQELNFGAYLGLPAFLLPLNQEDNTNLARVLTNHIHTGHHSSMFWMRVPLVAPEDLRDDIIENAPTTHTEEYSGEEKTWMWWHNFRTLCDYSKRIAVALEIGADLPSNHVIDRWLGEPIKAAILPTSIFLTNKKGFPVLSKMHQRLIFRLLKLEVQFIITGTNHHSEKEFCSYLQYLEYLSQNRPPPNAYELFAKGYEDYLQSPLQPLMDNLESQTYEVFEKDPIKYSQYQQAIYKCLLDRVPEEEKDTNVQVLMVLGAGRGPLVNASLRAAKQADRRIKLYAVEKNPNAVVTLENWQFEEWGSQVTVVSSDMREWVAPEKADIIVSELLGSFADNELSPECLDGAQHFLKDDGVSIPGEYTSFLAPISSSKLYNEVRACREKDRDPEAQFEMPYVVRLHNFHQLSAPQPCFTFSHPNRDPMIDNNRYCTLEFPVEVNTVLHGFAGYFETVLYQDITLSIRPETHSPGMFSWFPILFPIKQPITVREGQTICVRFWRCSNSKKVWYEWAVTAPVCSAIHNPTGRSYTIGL
T1 sequence (Q9BQA1 whole entry partner): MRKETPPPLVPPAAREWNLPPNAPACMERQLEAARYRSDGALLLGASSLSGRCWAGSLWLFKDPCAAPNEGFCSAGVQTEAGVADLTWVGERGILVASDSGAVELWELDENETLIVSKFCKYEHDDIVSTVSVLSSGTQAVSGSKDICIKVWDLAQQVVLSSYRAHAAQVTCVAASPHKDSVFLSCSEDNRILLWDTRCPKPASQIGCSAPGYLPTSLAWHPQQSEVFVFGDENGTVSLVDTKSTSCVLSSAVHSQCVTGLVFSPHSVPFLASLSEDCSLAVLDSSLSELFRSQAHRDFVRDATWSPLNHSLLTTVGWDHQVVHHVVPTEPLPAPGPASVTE
The test is described as follows: PRMT5 IC50 assay in the presence of MTA as cofactor. The class given is biochemical. The conditions noted are these: for IC50: PRMT5, MTA as cofactor. In outline:
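Three cofactor conditions tested for PRMT5 inhibition: none, MTA and SAM, each giving an IC50. For conversion to Ki, the MTA-condition IC50 is divided by 13.5 and the SAM-condition IC50 by 1.5, and the two Ki values are expressed as a SAM/MTA ratio.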

Test [2] concerns the target T1, PRMT5. The test is described as follows: PRMT5 IC50 assay in the presence of SAM as cofactor. The class given is biochemical. In short, it runs like this: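 Potency against PRMT5 is compared across cofactor states, where IC50 equals Ki×1.5 with SAM present and Ki×13.5 with MTA present.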
The subject of another test is HAP1 MTAP-intact. The test is described as follows: SDMA in-cell western assay, HAP1 MTAP-intact cell line. The class given is cell-based. The conditions noted are these: Homo sapiens. In short, it runs like this: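 HAP1 isogenic pair: endogenous MTAP vs MTAP-null. Readout SDMA by in-cell western; IC50 per line. Ratio ≥3 fold = MTAP-selective.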
Test [3] concerns the target T1, PRMT5. The test is described as follows: PRMT5 IC50 assay with no cofactor. The class given is biochemical. In short, it runs like this:
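Values reflect IC50 (μM) on human PRMT5 under three cofactor states. Selectivity is derived as the quotient of SAM-state Ki over MTA-state Ki, with each Ki obtained from its IC50.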

Setting [4] is: ratio between Ki in the presence of SAM and Ki in the presence of MTA.
Where [5] appears, read: ratio between the Ki in the presence of SAM and the Ki in the presence of MTA.

Experimental findings from patent US11986471B2, “Compounds and methods of use” (Tango Therapeutics, Inc., priority 2018, dated 2024) are described below.

As a reminder, the IC50 is the concentration that inhibits the measured activity by half. As for `CC(=O)N1CC(Nc2cc(C(=O)NC[C@H](O)CN3CCc4c(ccc(OCc5cnco5)c4Cl)C3)nc(N3CCOCC3)n2)C1` [Compound 352, (S)-6-((1-acetylazetidin-3-yl)amino)-N-(3-(5-chloro-6-(oxazol-5-ylmethoxy)-3A-dihydroisoquinolin-2(1H)-yl)-2-hydroxypropyl)-2-morpholinopyrimidine-4-carboxamide], the IC50 in the test with HAP1 MTAP-deleted was 1 to 10 µM; on PRMT5 [1] it was 0.05 to 0.5 µM; at PRMT5 [2] it was 0.05 to 0.5 µM; in the test on HAP1 MTAP-intact, at least 10 µM; at PRMT5 [3] (read-out: No Co-factor IC50), 0.5 to 5 µM. Further, the “MTAP Intact/Deleted Ratio” value in the test with HAP1 MTAP-deleted was “C* (an IC50 ratio of less than 3 fold between the IC50 in the HAP1 MTAP-intact cell line and the HAP1 MTAP-deleted cell line)”. The “SAM/MTA Ratio” value at PRMT5 [1] (setting [4]) was “A (a Ki ratio greater than or equal to 10 fold between the Ki in the presence of SAM and the Ki in the presence of MTA)”.

With `CC(=O)N1CC(Nc2cc(C(=O)NC[C@H](O)CN3CCc4cc(OCc5cnco5)ccc4C3)ccn2)C1` [Compound 451], the IC50 in the test on HAP1 MTAP-deleted was at least 10 µM; at PRMT5 [1], 0.05 to 0.5 µM; at PRMT5 [2], 0.05 to 0.5 µM; with HAP1 MTAP-intact it was at least 10 µM; on PRMT5 [3] it was 0.5 to 5 µM. Also, in the test on HAP1 MTAP-deleted, the “MTAP Intact/Deleted Ratio” value is “C* (an IC50 ratio of less than 3 fold between the IC50 in the HAP1 MTAP-intact cell line and the HAP1 MTAP-deleted cell line)”. Moreover, the “SAM/MTA Ratio” value on PRMT5 [1] (setting [5]) is “A (a Ki ratio greater than or equal to 10 fold between the Ki in the presence of SAM and the Ki in the presence of MTA)”.

Turning to `CC(=O)N1CC(Nc2cc(C(=O)NC[C@H](O)CN3CCc4cc(OCc5ocnc5C)ccc4C3)cc(N3CCCCC3)n2)C1` [Compound 634], the IC50 in the test on HAP1 MTAP-deleted is 1 to 10 µM; on PRMT5 [1], below 0.05 µM; on PRMT5 [2], 0.05 to 0.5 µM; with HAP1 MTAP-intact, 1 to 10 µM; on PRMT5 [3] (read-out: No Co-factor IC50), 0.05 to 0.5 µM. In the test on HAP1 MTAP-deleted, the “MTAP Intact/Deleted Ratio” value is “B* (an IC50 ratio greater than or equal to 3 fold but lower than 10 fold between the IC50 in the HAP1 MTAP-intact cell line and the HAP1 MTAP-deleted cell line)”. For the same compound, the “SAM/MTA Ratio” value at PRMT5 [1] (setting [4]) was “A (a Ki ratio greater than or equal to 10 fold between the Ki in the presence of SAM and the Ki in the presence of MTA)”.

As for `CC(=O)N1CC(Nc2cc(C(=O)NC[C@H](O)CN3CCc4cc(OCc5ocnc5C)c(F)cc4C3)nc(N3CCCCC3)n2)C1` [Compound 579, 6-[(1-acetylazetidin-3-yl)amino]-N-[(2S)-3-[7-fluoro-6-[(4-methyloxazol-5-yl)methoxy]-3,4-dihydro-1H-isoquinolin-2-yl]-2-hydroxy-propyl]-2-(1-piperidyl)pyrimidine-4-carboxamide], the IC50 with HAP1 MTAP-deleted is below 1 µM; at PRMT5 [1] it was 0.05 to 0.5 µM; on PRMT5 [2], 0.05 to 0.5 µM; in the test with HAP1 MTAP-intact it was 1 to 10 µM; against PRMT5 [3] it was 0.05 to 0.5 µM. Also, the “MTAP Intact/Deleted Ratio” value in the test with HAP1 MTAP-deleted was “A* (an IC50 ratio greater than or equal to 10 fold between the IC50 in the HAP1 MTAP-intact cell line and the HAP1 MTAP-deleted cell line)”. Further, at PRMT5 [1] (setting [5]), the “SAM/MTA Ratio” value is “A (a Ki ratio greater than or equal to 10 fold between the Ki in the presence of SAM and the Ki in the presence of MTA)”.

For `Cc1ncoc1COc1ccc2c(c1Br)CCN(C[C@@H](O)CNC(=O)c1ccnc(NC3CCCCC3)c1)C2` [Compound 346, (S)—N-(3-(5-bromo-6-((4-methyloxazol-5-yl)methoxy)-3N-dihydroisoquinolin-2(1H)-yl)-2-hydroxypropyl)-2-(cyclohexylamino)isonicotinamide], the IC50 was at least 10 µM with HAP1 MTAP-deleted; 0.05 to 0.5 µM on PRMT5 [1]; 0.5 to 5 µM at PRMT5 [2]; at least 10 µM with HAP1 MTAP-intact; at least 5 µM at PRMT5 [3] (read-out: No Co-factor IC50). Further, the “MTAP Intact/Deleted Ratio” value in the test with HAP1 MTAP-deleted is “C* (an IC50 ratio of less than 3 fold between the IC50 in the HAP1 MTAP-intact cell line and the HAP1 MTAP-deleted cell line)”. For the same compound, the “SAM/MTA Ratio” value on PRMT5 [1] (setting [4]) is “A (a Ki ratio greater than or equal to 10 fold between the Ki in the presence of SAM and the Ki in the presence of MTA)”.

As to `O=C(NC[C@H](O)CN1CCc2nc(OCc3cnco3)ccc2C1)c1ccnc(NC2CCC2)c1` [Compound 413, 2-(cyclobutylamino)-N-[(2S)-2-hydroxy-3-[2-(oxazol-5-ylmethoxy)-7,8-dihydro-5H-1,6-naphthyridin-6-yl]propyl]pyridine-4-carboxamide], the IC50 in the test with HAP1 MTAP-deleted is at least 10 µM; on PRMT5 [1] it was 0.5 to 5 µM; on PRMT5 [2], 0.5 to 5 µM; in the test with HAP1 MTAP-intact, at least 10 µM; on PRMT5 [3] (read-out: No Co-factor IC50) it was at least 5 µM. Further, in the test on HAP1 MTAP-deleted, the “MTAP Intact/Deleted Ratio” value is “C* (an IC50 ratio of less than 3 fold between the IC50 in the HAP1 MTAP-intact cell line and the HAP1 MTAP-deleted cell line)”. In addition, the “SAM/MTA Ratio” value on PRMT5 [1] (setting [4]) was “A (a Ki ratio greater than or equal to 10 fold between the Ki in the presence of SAM and the Ki in the presence of MTA)”.

As for `O=C(NC[C@H](O)CN1CCc2cc(OCc3cnco3)cc(F)c2C1)c1ccnc(NC2CCC2)c1` [Compound 362, 2-(cyclobutylamino)-N-[(2S)-3-[8-fluoro-6-(oxazol-5-ylmethoxy)-3,4-dihydro-1H-isoquinolin-2-yl]-2-hydroxy-propyl]pyridine-4-carboxamide], the IC50 in the test with HAP1 MTAP-deleted is 1 to 10 µM; at PRMT5 [1] it was 0.05 to 0.5 µM; at PRMT5 [2], 0.5 to 5 µM; with HAP1 MTAP-intact it was below 1 µM; at PRMT5 [3] (read-out: No Co-factor IC50), at least 5 µM. The “MTAP Intact/Deleted Ratio” value in the test on HAP1 MTAP-deleted is “C* (an IC50 ratio of less than 3 fold between the IC50 in the HAP1 MTAP-intact cell line and the HAP1 MTAP-deleted cell line)”. Also, the “SAM/MTA Ratio” value on PRMT5 [1] (setting [4]) was “A (a Ki ratio greater than or equal to 10 fold between the Ki in the presence of SAM and the Ki in the presence of MTA)”.

For `CC(C)(C)c1cc(C(=O)NC[C@H](O)CN2CCc3cc(OCc4cnco4)ccc3C2)cc(NC2CCC2)n1` [Compound 308, (S)-2-(tert-butyl)-6-(cyclobutylamino)-N-(2-hydroxy-3-(6-(oxazol-5-ylmethoxy)-3,4-dihydroisoquinolin-2(1H)-yl)propyl)isonicotinamide], the IC50 with HAP1 MTAP-deleted was at least 10 µM; on PRMT5 [1], 0.5 to 5 µM; at PRMT5 [2], 0.5 to 5 µM; in the test on HAP1 MTAP-intact, at least 10 µM; on PRMT5 [3] (read-out: No Co-factor IC50), at least 5 µM. Also, in the test on HAP1 MTAP-deleted, the “MTAP Intact/Deleted Ratio” value was “C* (an IC50 ratio of less than 3 fold between the IC50 in the HAP1 MTAP-intact cell line and the HAP1 MTAP-deleted cell line)”. Besides, the “SAM/MTA Ratio” value on PRMT5 [1] (setting [4]) is “A (a Ki ratio greater than or equal to 10 fold between the Ki in the presence of SAM and the Ki in the presence of MTA)”.

In the case of `CC(=O)N1CCC(Nc2ccnc(C(=O)NC[C@H](O)CN3CCc4cc(OCc5cnco5)ccc4C3)c2)CC1` [Compound 507, (S)-4-((1-acetylpiperidin-4-yl)amino)-N-(2-hydroxy-3-(6-(oxazol-5-ylmethoxy)-3,4-dihydroisoquinolin-2(1H)-yl)propyl)picolinamide], the IC50 in the test on HAP1 MTAP-deleted was 1 to 10 µM; on PRMT5 [1], 0.05 to 0.5 µM; at PRMT5 [2], 0.05 to 0.5 µM; in the test with HAP1 MTAP-intact it was at least 10 µM; against PRMT5 [3], 0.5 to 5 µM. The “MTAP Intact/Deleted Ratio” value in the test on HAP1 MTAP-deleted is “B* (an IC50 ratio greater than or equal to 3 fold but lower than 10 fold between the IC50 in the HAP1 MTAP-intact cell line and the HAP1 MTAP-deleted cell line)”. Moreover, the “SAM/MTA Ratio” value on PRMT5 [1] (setting [5]) was “A (a Ki ratio greater than or equal to 10 fold between the Ki in the presence of SAM and the Ki in the presence of MTA)”.

`CCC(=O)N1CCN(c2cc(C(=O)NC[C@H](O)CN3CCc4cc(OCc5cnco5)ccc4C3)cc(NC3CCC3)n2)CC1` [Compound 397, (S)-2-(cyclobutylamino)-N-(2-hydroxy-3-(6-(oxazol-5-ylmethoxy)-3,4-dihydroisoquinolin-2(1H)-yl)propyl)-6-(4-propionylpiperazin-1-yl)isonicotinamide]: the IC50 was below 1 µM with HAP1 MTAP-deleted; 0.05 to 0.5 µM at PRMT5 [1]; 0.05 to 0.5 µM at PRMT5 [2]; 1 to 10 µM in the test with HAP1 MTAP-intact; 0.5 to 5 µM on PRMT5 [3] (read-out: No Co-factor IC50). The “MTAP Intact/Deleted Ratio” value in the test with HAP1 MTAP-deleted was “C* (an IC50 ratio of less than 3 fold between the IC50 in the HAP1 MTAP-intact cell line and the HAP1 MTAP-deleted cell line)”. Moreover, on PRMT5 [1] (setting [4]), the “SAM/MTA Ratio” value was “A (a Ki ratio greater than or equal to 10 fold between the Ki in the presence of SAM and the Ki in the presence of MTA)”.

Take `O=C(NC[C@H](O)CN1CCc2c(ccc(OCc3cnco3)c2Cl)C1)c1cc(NC2CCC2)nc(N2CCOCC2)c1` [Compound 288, (S)—N-(3-(5-chloro-6-(oxazol-5-ylmethoxy)-3N-dihydroisoquinolin-2(1H)-yl)-2-hydroxypropyl)-2-(cyclobutylamino)-6-morpholinoisonicotinamide]: the IC50 in the test on HAP1 MTAP-deleted is 1 to 10 µM; at PRMT5 [1] it was 0.05 to 0.5 µM; at PRMT5 [2], 0.5 to 5 µM; in the test on HAP1 MTAP-intact it was at least 10 µM; at PRMT5 [3] (read-out: No Co-factor IC50), at least 5 µM. The “MTAP Intact/Deleted Ratio” value in the test with HAP1 MTAP-deleted is “C* (an IC50 ratio of less than 3 fold between the IC50 in the HAP1 MTAP-intact cell line and the HAP1 MTAP-deleted cell line)”. Besides, the “SAM/MTA Ratio” value on PRMT5 [1] (setting [4]) is “A (a Ki ratio greater than or equal to 10 fold between the Ki in the presence of SAM and the Ki in the presence of MTA)”.
